Biological target: rat mGlu2 (Rattus norvegicus (Rat), UniProt P31421)
Assay: mGlu2 Ca2+ flux assay
Format: cell-based
Conditions: for IC50: Gα15 HEK293 cells stably expressing rat mGlu2, glutamate EC80, >10,000 = no plateau, >30,000 = no measurable activity; for remaining activity at 30 µM: amplitude of response in the presence of 30 μM test compound as percentage of maximal response to glutamate, read-out: rat mGlu2 Glu max; for NAM designation: concentration-dependent decrease in the glutamate EC80 response
Procedure: Gα15 HEK293 cells stably expressing rat mGlu2 were plated in black-walled, clear-bottomed, poly-D-lysine coated 384-well plates in 20 μL of assay medium (DMEM containing 10% dialyzed FBS, 20 mM HEPES, and 1 mM sodium pyruvate) at a density of 12K cells/well. The cells were grown overnight at 37° C. in the presence of 5% CO2. The next day, medium was removed and the cells incubated with 20 μL of 2.3 μM Fluo-4, AM prepared as a 2.3 mM stock in DMSO and mixed in a 1:1 ratio with 10% (w/v) pluronic acid F-127 and diluted in assay buffer (Hank's balanced salt solution, 20 mM HEPES, and 2.5 mM probenecid) for 45 minutes at 37° C. Dye was removed, 20 μL of assay buffer was added, and the plate was incubated for 5 minutes at room temperature.
Ca^2+ flux was measured using the Functional Drug Screening System (FDSS7000, Hamamatsu, Japan). After establishment of a fluorescence baseline for about 3 seconds, the compounds of the present invention were added to the cells, and the response in cells was measured. 2.3 minutes later an EC20 concentration of the mGlu2 receptor agonist glutamate was added to the cells, and the response of the cells was measured for 1.9 minutes; an EC80 concentration of agonist was added and readings taken for an additional 1.7 minutes. All test compounds were dissolved and diluted to a concentration of 10 mM in 100% DMSO. Compounds were then serially diluted 1:3 in DMSO into 10 point concentration response curves, transferred to daughter plates, and further diluted into assay buffer to a 2× stock. Calcium fluorescence measures were recorded as fold over basal fluorescence; raw data was then normalized to the maximal response to glutamate. Antagonism of the agonist response of the mGlu2 receptor in the present invention was observed as a decrease in response to nearly maximal concentrations of glutamate in the presence of compound compared to the response to glutamate in the absence of compound.
The raw data file containing all time points was used as the data source in the analysis template. This was saved by the FDSS as a tab-delimited text file. Data were normalized using a static ratio function (F/F0) for each measurement of the total 360 values per well divided by each well's initial value. Data were then reduced to peak amplitudes (Max−Initial Min) using a time range that starts approximately 3 seconds prior to the glutamate EC80 addition and continues for approximately 90 seconds. This is sufficient time to capture the peak amplitude of the cellular calcium response. Individual amplitudes were expressed as % ECMax by multiplying each amplitude by 100 and then dividing the product by the mean of the amplitudes derived from the glutamate ECMax-treated wells. IC50 values for test compounds were generated by fitting the normalized values versus the log of the test compound concentration (in mol/L) using a 4 parameter logistic equation where none of the parameters were fixed. Each of the three values collected at each concentration of test compound were weighted evenly.
For NAMs, potency (IC50) and maximum response (% Glu Max), i.e. the amplitude of response in the presence of 30 μM test compound as a percentage of the maximal response to glutamate, are reported. […] Compounds with no measurable activity are designated as “>30,000 nM” since the top concentration of compound tested in the assay is 30 μM.

rat mGlu2, sequence (P31421 19-872): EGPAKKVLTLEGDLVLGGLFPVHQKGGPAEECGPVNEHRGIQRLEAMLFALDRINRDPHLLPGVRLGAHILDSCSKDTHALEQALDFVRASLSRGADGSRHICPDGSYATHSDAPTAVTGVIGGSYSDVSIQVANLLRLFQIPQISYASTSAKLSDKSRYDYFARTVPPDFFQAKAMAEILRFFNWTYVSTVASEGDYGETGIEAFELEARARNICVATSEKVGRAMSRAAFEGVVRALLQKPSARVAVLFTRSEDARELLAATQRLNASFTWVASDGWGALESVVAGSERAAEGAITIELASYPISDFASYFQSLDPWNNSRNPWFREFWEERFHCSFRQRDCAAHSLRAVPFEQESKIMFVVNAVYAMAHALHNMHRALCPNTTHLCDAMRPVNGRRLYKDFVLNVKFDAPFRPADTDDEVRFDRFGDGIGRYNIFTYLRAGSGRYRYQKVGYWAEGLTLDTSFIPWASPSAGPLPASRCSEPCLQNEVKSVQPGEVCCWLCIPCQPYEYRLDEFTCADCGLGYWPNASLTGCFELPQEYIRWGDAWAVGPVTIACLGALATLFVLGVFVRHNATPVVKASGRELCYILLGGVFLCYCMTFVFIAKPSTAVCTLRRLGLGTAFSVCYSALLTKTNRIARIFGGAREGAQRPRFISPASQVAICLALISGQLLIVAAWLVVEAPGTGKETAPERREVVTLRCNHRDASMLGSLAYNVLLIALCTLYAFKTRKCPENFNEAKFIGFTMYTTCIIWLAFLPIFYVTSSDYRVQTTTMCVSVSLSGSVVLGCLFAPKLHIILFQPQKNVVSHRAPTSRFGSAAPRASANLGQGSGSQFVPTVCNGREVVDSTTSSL

IC50 [µM]	remaining activity at 30 µM [%]	NAM designation	Structure (SMILES)
6.85	5.12	–	N#Cc1cc(-c2ccc(F)cc2)c(NCC2CCOCC2)cn1 [Compound 1, 4-(4-fluorophenyl)-5-(((tetrahydro-2H-pyran-4-yl)methyl)amino)picolinonitrile]
> 30	–	–	N#Cc1cc(-c2ccc(F)cc2)c(OCC2CCOCC2)cn1 [Compound 9, 4-(4-fluorophenyl)-5-((tetrahydro-2H-pyran-4-yl)methoxy)picolinonitrile]
> 10	37	–	N#Cc1cc(-c2ccc(F)cc2)c(OCc2cccnc2)cn1 [Compound 10, 4-(4-fluorophenyl)-5-(pyridin-3-ylmethoxy)picolinonitrile]
7.11	29.9	–	N#Cc1cccc(COc2cnc(C#N)cc2-c2ccc(F)cc2)c1 [Compound 11, 5-((3-cyanobenzyl)oxy)-4-(4-fluorophenyl)picolinonitrile]
> 30	–	–	Cc1ccc(COc2cnc(C#N)cc2-c2ccc(F)cc2)cn1 [Compound 14, 4-(4-fluorophenyl)-5-((6-methylpyridin-3-yl)methoxy)picolinonitrile]
> 30	–	–	COc1ccc(COc2cnc(C#N)cc2-c2ccc(F)cc2)cn1 [Compound 15, 4-(4-fluorophenyl)-5-((6-methoxypyridin-3-yl)methoxy)picolinonitrile]
2.69	47.5	(Partial NAM)	Cc1cc(COc2cnc(C#N)cc2-c2ccc(F)cc2)ccn1 [Compound 18, 4-(4-fluorophenyl)-5-((2-methylpyridin-4-yl)methoxy)picolinonitrile]
> 10	27.1	–	CC(Oc1cnc(C#N)cc1-c1ccc(F)cc1)c1ccncc1 (centres unmarked) [Compound 19, 4-(4-fluorophenyl)-5-(1-(pyridin-4-yl)ethoxy)picolinonitrile]
> 10	11.1	–	Cn1ccc(COc2cnc(C#N)cc2-c2ccc(F)cc2)n1 [Compound 22, 4-(4-fluorophenyl)-5-((1-methyl-1H-pyrazol-3-yl)methoxy)picolinonitrile]
> 10	39	–	N#Cc1cc(-c2ccc(F)cc2)c(OCCOc2cccnc2)cn1 [Compound 25, 4-(4-fluorophenyl)-5-(2-(pyridin-3-yloxy)ethoxy)picolinonitrile]
> 30	–	–	N#Cc1cc(-c2ccc(F)cc2)c(OC2CCN(c3ccnc(C(F)(F)F)c3)CC2)cn1 [Compound 26, 4-(4-fluorophenyl)-5-((1-(2-(trifluoromethyl)pyridin-4-yl)piperidin-4-yl)oxy)picolinonitrile]
> 30	–	–	N#Cc1cc(-c2ccc(F)cc2)c(OC2CCN(c3ccnc(C(F)(F)F)c3)C2)cn1 (centres unmarked) [Compound 27, 4-(4-fluorophenyl)-5-((1-(2-(trifluoromethyl)pyridin-4-yl)pyrrolidin-3-yl)oxy)picolinonitrile]
> 30	–	–	N#Cc1cc(-c2ccc(F)cc2)c(OC2CN(c3ccnc(C(F)(F)F)c3)C2)cn1 [Compound 28, 4-(4-fluorophenyl)-5-((1-(2-(trifluoromethyl)pyridin-4-yl)azetidin-3-yl)oxy)picolinonitrile]
0.401	18.7	(Partial NAM)	NC(=O)c1cc(-c2ccc(F)cc2)c(OCc2cc(F)cc(F)c2)cn1 [Compound 30, 5-((3,5-difluorobenzyl)oxy)-4-(4-fluorophenyl)picolinamide]
0.395	1.46	(Partial NAM)	COc1ccc(-c2cc(C(N)=O)ncc2OCc2cc(F)cc(F)c2)c(F)c1 [Compound 31, 5-((3,5-difluorobenzyl)oxy)-4-(2-fluoro-4-methoxyphenyl)picolinamide]

Second part, the compound before the results:

Structure (SMILES)	IC50 [µM]	remaining activity at 30 µM [%]	NAM designation
N#Cc1cc(-c2ccc(F)cc2)c(NCCN2CCOCC2)cn1 [Compound 2, 4-(4-fluorophenyl)-5-((2-morpholinoethyl)amino)picolinonitrile]	> 10	47.5	–
CN(CCN1CCOCC1)c1cnc(C#N)cc1-c1ccc(F)cc1 [Compound 3, 4-(4-fluorophenyl)-5-(methyl(2-morpholinoethyl)amino)picolinonitrile]	> 10	52.4	–
CC(CN1CCOCC1)Nc1cnc(C#N)cc1-c1ccc(F)cc1 (centres unmarked) [Compound 4, 4-(4-fluorophenyl)-5-((1-morpholinopropan-2-yl)amino)picolinonitrile]	> 10	46.6	–
CC(CNc1cnc(C#N)cc1-c1ccc(F)cc1)N1CCOCC1 (centres unmarked) [Compound 5, 4-(4-fluorophenyl)-5-((2-morpholinopropyl)amino)picolinonitrile]	> 10	36.2	–
N#Cc1cc(-c2ccc(F)cc2)c(NCCCN2CCOCC2)cn1 [Compound 6, 4-(4-fluorophenyl)-5-((3-morpholinopropyl)amino)picolinonitrile]	> 10	49.2	–
N#Cc1cc(-c2ccc(F)cc2)c(OCc2ccc(Cl)nc2)cn1 [Compound 7, 5-((6-Chloropyridin-3-yl)methoxy)-4-(4-fluorophenyl)picolinonitrile]	> 30	–	–
NC(=O)c1cc(-c2ccc(F)cc2)c(OCc2ccc(Cl)nc2)cn1 [Compound 8, 5-((6-chloropyridin-3-yl)methoxy)-4-(4-fluorophenyl)picolinamide]	0.429	2	–
N#Cc1cc(-c2ccc(F)cc2)c(OCc2cc(F)cc(F)c2)cn1 [Compound 12, 5-((3,5-difluorobenzyl)oxy)-4-(4-fluorophenyl)picolinonitrile]	> 30	–	–
N#Cc1cc(-c2ccc(F)cc2)c(OCc2cncc(Cl)c2)cn1 [Compound 13, 5-((5-chloropyridin-3-yl)methoxy)-4-(4-fluorophenyl)picolinonitrile]	> 30	–	–
CC(Oc1cnc(C#N)cc1-c1ccc(F)cc1)c1cccnc1 (centres unmarked) [Compound 16, 4-(4-fluorophenyl)-5-(1-(pyridin-3-yl)ethoxy)picolinonitrile]	> 30	–	–
N#Cc1cc(-c2ccc(F)cc2)c(OCc2ccncc2)cn1 [Compound 17, 4-(4-fluorophenyl)-5-(pyridin-4-ylmethoxy)picolinonitrile]	1.58	62	(Partial NAM)
N#Cc1cc(-c2ccc(F)cc2)c(OCc2ccnc(C(F)(F)F)c2)cn1 [Compound 20, 4-(4-fluorophenyl)-5-((2-(trifluoromethyl)pyridin-4-yl)methoxy)picolinonitrile]	> 10	37.9	–
N#Cc1cc(-c2ccc(F)cc2)c(OCc2ccc3nccn3c2)cn1 [Compound 21, 4-(4-fluorophenyl)-5-(imidazo[1,2-a]pyridin-6-ylmethoxy)picolinonitrile]	3.49	16.1	–
N#Cc1cc(-c2ccc(F)cc2)c(OCCc2cccnc2)cn1 [Compound 23, 4-(4-fluorophenyl)-5-(2-(pyridin-3-yl)ethoxy)picolinonitrile]	> 30	–	–
N#Cc1cc(-c2ccc(F)cc2)c(OCCN2CCOCC2)cn1 [Compound 24, 4-(4-fluorophenyl)-5-(2-morpholinoethoxy)picolinonitrile]	> 30	–	–
N#Cc1cc(-c2ccc(F)cc2)c(OCCOCc2ccccc2)cn1 [Compound 29, 5-(2-(benzyloxy)ethoxy)-4-(4-fluorophenyl)picolinonitrile]	4.25	65.2	(Partial NAM)
NC(=O)c1cc(-c2ccc(C(F)(F)F)nc2)c(OCc2cc(F)cc(F)c2)cn1 [Compound 32, 5′-((3,5-difluorobenzyl)oxy)-6-(trifluoromethyl)[3,4′-bipyridine]-2′-carboxamide]	> 10	35.1	–
NC(=O)c1cc(-c2ccc(F)cc2)c(OCc2ccc(Br)cc2)cn1 [Compound 33, 5-((4-bromobenzyl)oxy)-4-(4-fluorophenyl)picolinamide]	1.69	2.29	–

Source: patent publication US10538491B2, “4,5-substituted picolinamide and picolinonitrile metabotropic glutamate receptor 2 negative allosteric modulators” (Vanderbilt University, priority 2015, dated 2020)
